System: androgen receptor (AR) in LNCaP and/or VCaP cells
Test: Androgen Receptor ELISA assay (AR degradation)
Assay type: cell-based
Conditions: LNCaP and/or VCaP cells; 5 hours incubation; media with R1881; read-out: DC50 Code* (degradation of AR ELISA)
Experimental: Androgen Receptor ELISA Assay. […] The protocols used with VCaP cells are described below.
The cells were grown for a minimum of 3 days.
(2)(i) A 10× stock plate in media was made; (ii) 2.5 μL of the 1000× stock was transferred to a new 10× stock plate (use 12 channel pipet, start at A (DMSO control) work thru H. When 247.5 µL of media was added to this plate, it served as a 10× stock; (iii) made media+1 nM R1881 for making 10× stock plate; (iv) added 247.5 μL of media with 1 nM R1881 to each well of the 10× stock plate, mix.
Then 22 μL of 10× stock was added to cells and incubated for 5 hours. […] Media was aspirated, and 100 μL 1× cell lysis buffer/well was added. The cells were placed on a shaker located in a cold room for 10 minutes and shaken at speed 7. The lysate mixture was mix and 20 μL transferred to 100 μl of Diluent in ELISA plate (0.15 μg/ml-[…]). The lysate-diluent mixture was store at 4° C. overnight on a shaker located in a cold room at speed 5 (gentle swirl).
The lysate-diluent mixture was shaken for 30 minutes at 37° C. The mouse AR antibody, anti-mouse antibody, TMB, and STOP solution were allowed to come to room temperature. The 1×ELISA buffer included in kit was made and loaded in reservoir. Media from the plate was discarded, the ELISA plate was tapped hard on paper towel, and washed 4×200 μl ELISA wash buffer using a plate washer for the first three washes and an eight channel aspirator for the fourth wash to more thoroughly aspirate the solution.
Next, 100 μL/well of mouse AR detection Ab was added; the plate was covered and shaken at 37° C. for 1 hour; media was discarded from the plates, the plates tapped on a paper towel and washed four times with 200 μL ELISA wash buffer with a plate washer for the first three washes and an eight channel aspirator for the fourth wash; 100 μL/well of anti-mouse—HRP conjugated Ab (comes with the kit) was added; the plates was cover and shaken at 37° C. for 30 minutes; the TMB reagent was allowed to come to room temperature; the media from the plate was discarded, the plates tapped on paper towel, and washed four times with 200 μL ELISA wash buffer with a plate washer for the first three washes and an eight channel aspirator for the fourth wash; plates were tapped on paper towel; 100 μL TMB was added to each well and the plate shaken for 2 minutes—while watching color. STOP solution (100 μL) was added when light blue color developed.
Data was analyzed and plotted using GraphPad Prism software. Exemplary compounds of Tables 1A, 1B, and 1C were assayed and the data shown below in Tables 2A, 2B, and 2C. DC50 (nM) categories (degradation of AR ELISA in LNCaP and/or VCaP cells) of Tables 2A, 2B, and 2C are as follows: A<1 nM; 1≤B<10 nM; 10≤C<100 nM; D≥100 nM. Dmax (%) categories (degradation of AR ELISA in LNCaP and/or VCaP cells) of Table 2 are as follows: A≥70; 50≤B<70; C<50

| Structure (SMILES) | DC50 [nM] |
| --- | --- |
| COc1cc(O[C@H]2C[C@H](N(CC3CCN(c4ncc(C(=O)NC5CC6(C5)CN(Cc5cc(C)c(C#N)c(C)c5)C6)cn4)CC3)C(C)C)C2)cc2c1C(=O)N(C1CCC(=O)NC1=O)C2=O (mixture of isomers) [Compound 12, rac-N-(2-(4-cyano-3,5-dimethylbenzyl)-2-azaspiro[3.3]heptan-6-yl)-2-(4-((((1r,3r)-3-((2-(2,6-dioxopiperidin-3-yl)-7-methoxy-1,3-dioxoisoindolin-5-yl)oxy)cyclobutyl) (isopropyl)amino)methyl)piperidin-1-yl)pyrimidine-5-carboxamide] | > 100 |
| COc1cc(O[C@H]2CC[C@H](NC(=O)c3cnc(N4CCC(CN(C(C)C)[C@H]5C[C@H](Oc6ccc7c(c6)C(=O)N(C6CCC(=O)NC6=O)C7)C5)CC4)nc3)CC2)ccc1C#N (stereo partly drawn) [Compound 63, N-((1r,4r)-4-(4-cyano-3-methoxyphenoxy)cyclohexyl)-2-(4-((((1r,3r)-3-((2-(2,6-dioxopiperidin-3-yl)-3-oxoisoindolin-5-yl)oxy)cyclobutyl) (isopropyl)amino)methyl)piperidin-1-yl)pyrimidine-5-carboxamide] | < 1 |
| N#Cc1ccc(O[C@H]2CC[C@H](NC(=O)c3ccc(N4CCC(CN5CCN(c6ccc7c(c6F)C(=O)N(C6CCC(=O)NC6=O)C7=O)CC5)CC4)nn3)CC2)cc1Cl (stereo partly drawn) [Compound 49] | < 1 |
| COc1cc(O[C@H]2CC[C@H](NC(=O)c3cnc(N4CCC(CN(C(C)C)[C@H]5C[C@H](Oc6ccc7c(c6)C(=O)N(C6CCC(=O)NC6=O)C7=O)C5)CC4)cn3)CC2)ccc1C#N (stereo partly drawn) [Compound 32, N-((1r,4r)-4-(4-cyano-3-methoxyphenoxy)cyclohexyl)-5-(4-((((1r,3r)-3-((2-(2,6-dioxopiperidin-3-yl)-1,3-dioxoisoindolin-5-yl)oxy)cyclobutyl) (isopropyl)amino)methyl)piperidin-1-yl)pyrazine-2-carboxamide] | < 1 |
| CC(C)N(CC1CN(c2cnc(C(=O)N[C@H]3CC[C@H](Oc4ccc(C#N)c(Cl)c4)CC3)cn2)C1)[C@H]1C[C@H](Oc2ccc3c(c2)C(=O)N(C2CCC(=O)NC2=O)C3=O)C1 (stereo partly drawn) [Compound 37, N-((1r,4r)-4-(3-chloro-4-cyanophenoxy)cyclohexyl)-5-(3-((((1r,3r)-3-((2-(2,6-dioxopiperidin-3-yl)-1,3-dioxoisoindolin-5-yl)oxy)cyclobutyl) (isopropyl)amino)methyl)azetidin-1-yl)pyrazine-2-carboxamide] | < 1 |
| N#Cc1ccc(O[C@H]2CC[C@H](NC(=O)c3ccc(N4CCC(CN[C@H]5C[C@H](Oc6ccc7c(c6)C(=O)N(C6CCC(=O)NC6=O)C7=O)C5)CC4)nn3)CC2)cc1Cl (mixture of isomers) [Compound 51, rac-N-((1r,4r)-4-(3-chloro-4-cyanophenoxy)cyclohexyl)-6-(4-((((1r,3r)-3-((2-(2,6-dioxopiperidin-3-yl)-1,3-dioxoisoindolin-5-yl)oxy)cyclobutyl)amino)methyl)piperidin-1-yl)pyridazine-3-carboxamide] | < 1 |

Same assay, conditions: degradation of AR ELISA in LNCaP and/or VCaP cells; Table 2C; read-out: DC50 Code*

| Structure (SMILES) | DC50 [nM] |
| --- | --- |
| Cc1cc(O[C@H]2C(C)(C)[C@H](NC(=O)c3ccc(N4CCC(CN5CCOC[C@H]5CCOc5ccc6c(c5)C(=O)N(C5CCC(=O)NC5=O)C6=O)CC4)cc3)C2(C)C)cc(C)c1C#N (stereo partly drawn) [compound 201, N-((1r,3R)-3-(4-cyano-3,5-dimethylphenoxy)-2,2,4,4-tetramethylcyclobutyl)-4-(4-(((3R)-3-(2-((2-(2,6-dioxopiperidin-3-yl)-1,3-dioxoisoindolin-5-yl)oxy)ethyl)morpholino)methyl)piperidin-1-yl)benzamide] | < 1 |
| Cc1cc(O[C@H]2C(C)(C)[C@H](NC(=O)c3ccc(N4CCO[C@H](CN5CCN(c6ccc7c(c6)C(=O)N(C6CCC(=O)NC6=O)C7=O)CC5)C4)cc3)C2(C)C)cc(C)c1C#N (stereo partly drawn) [compound 167, N-((1r,3R)-3-(4-cyano-3,5-dimethylphenoxy)-2,2,4,4-tetramethylcyclobutyl)-4-((2R)-2-((4-(2-(2,6-dioxopiperidin-3-yl)-1,3-dioxoisoindolin-5-yl)piperazin-1-yl)methyl)morpholino) benzamide] | < 1 |
| Cc1cc(O[C@H]2C(C)(C)[C@H](NC(=O)c3cnc(N4CCC5(CC4)CN([C@H]4C[C@H](Oc6ccc7c(c6)C(=O)N(C6CCC(=O)NC6=O)C7=O)C4)CCO5)cn3)C2(C)C)cc(C)c1C#N (mixture of isomers) [compound 236, rac-N-((1r,3r)-3-(4-cyano-3,5-dimethylphenoxy)-2,2,4,4-tetramethylcyclobutyl)-5-(4-((1r,3r)-3-((2-(2,6-dioxopiperidin-3-yl)-1,3-dioxoisoindolin-5-yl)oxy)cyclobutyl)-1-oxa-4,9-diazaspiro[5.5]undecan-9-yl)pyrazine-2-carboxamide] | < 1 |
| Cc1cc(O[C@H]2C(C)(C)[C@H](NC(=O)c3ccc(N4CCC5(CC4)CN(CCOc4ccc6c(c4)C(=O)N(C4CCC(=O)NC4=O)C6=O)CCO5)cc3)C2(C)C)cc(C)c1C#N (mixture of isomers) [compound 182, rac-N-((1r,3r)-3-(4-cyano-3,5-dimethylphenoxy)-2,2,4,4-tetramethylcyclobutyl)-4-(4-(2-((2-(2,6-dioxopiperidin-3-yl)-1,3-dioxoisoindolin-5-yl)oxy)ethyl)-1-oxa-4,9-diazaspiro[5.5]undecan-9-yl)benzamide] | < 1 |
| COc1cc(O[C@H]2C[C@H](OC3CCN(c4ccc(C(=O)N[C@H]5C(C)(C)[C@H](Oc6cc(C)c(C#N)c(C)c6)C5(C)C)cc4)CC3)C2)cc2c1C(=O)N(C1CCC(=O)NC1=O)C2=O (mixture of isomers) [compound 197, rac-N-((1r,3r)-3-(4-cyano-3,5-dimethylphenoxy)-2,2,4,4-tetramethylcyclobutyl)-4-(4-((1r,3r)-3-((2-(2,6-dioxopiperidin-3-yl)-7-methoxy-1,3-dioxoisoindolin-5-yl)oxy)cyclobutoxy)piperidin-1-yl)benzamide] | < 1 |
| Cc1cc(O[C@H]2C(C)(C)[C@H](NC(=O)c3cnc(N4CCC(CN(CCO)[C@H]5C[C@H](Oc6ccc7c(c6)C(=O)N(C6CCC(=O)NC6=O)C7=O)C5)CC4)cn3)C2(C)C)cc(C)c1C#N (mixture of isomers) [compound 229, rac-N-((1r,3r)-3-(4-cyano-3,5-dimethylphenoxy)-2,2,4,4-tetramethylcyclobutyl)-5-(4-((((1r,3r)-3-((2-(2,6-dioxopiperidin-3-yl)-1,3-dioxoisoindolin-5-yl)oxy)cyclobutyl)(2-hydroxyethyl)amino)methyl)piperidin-1-yl)pyrazine-2-carboxamide] | < 1 |
| Cc1cc(O[C@H]2C(C)(C)[C@H](NC(=O)c3ccc(N4CCC(CN(C(C)C)[C@H]5C[C@H](Oc6ccc7c(c6)C(=O)N([C@@H]6CCC(=O)NC6=O)C7=O)C5)CC4)cc3)C2(C)C)cc(C)c1C#N [compound 160, N-((1r,3r)-3-(4-cyano-3,5-dimethylphenoxy)-2,2,4,4-tetramethylcyclobutyl)-4-(4-((((1R,3r)-3-((2-((R)-2,6-dioxopiperidin-3-yl)-1,3-dioxoisoindolin-5-yl)oxy)cyclobutyl) (isopropyl)amino)methyl)piperidin-1-yl)benzamide] | < 1 |
| Cc1cc(O[C@H]2C(C)(C)[C@H](NC(=O)c3cnc(N4CCC(CN(C(C)C)[C@H]5C[C@H](Oc6ccc7c(c6)C(=O)N(C6CCC(=O)NC6=O)C7)C5)CC4)cn3)C2(C)C)cc(C)c1C#N (mixture of isomers) [compound 212, rac-N-((1r,3r)-3-(4-cyano-3,5-dimethylphenoxy)-2,2,4,4-tetramethylcyclobutyl)-5-(4-((((1r,3r)-3-((2-(2,6-dioxopiperidin-3-yl)-3-oxoisoindolin-5-yl)oxy)cyclobutyl) (isopropyl)amino)methyl)piperidin-1-yl)pyrazine-2-carboxamide] | < 1 |
| CC(C)N(CC1CN(c2ccc(C(=O)N[C@H]3C(C)(C)[C@H](Oc4ccc(C#N)c(Cl)c4)C3(C)C)cc2)C1)[C@H]1C[C@H](Oc2ccc3c(c2)C(=O)N(C2CCC(=O)NC2=O)C3=O)C1 (mixture of isomers) [compound 198, rac-N-((1r,3r)-3-(3-chloro-4-cyanophenoxy)-2,2,4,4-tetramethylcyclobutyl)-4-(3-((((1r,3r)-3-((2-(2,6-dioxopiperidin-3-yl)-1,3-dioxoisoindolin-5-yl)oxy)cyclobutyl) (isopropyl)amino)methyl)azetidin-1-yl)benzamide] | < 1 |
